Measured values taken from patent US20250205369A1, “DENDRIMER COMPOSITIONS AND USE IN TREATMENT OF NEUROLOGICAL AND CNS DISORDERS” (THE JOHNS HOPKINS UNIVERSITY, priority 2014, published 2025).

Assays:
MeCP2-null mice = test: NAC and D-NAC therapy in MeCP2-null (RTT) mice: survival, behavior, appearance; format: in vivo; conditions: MeCP2-null pups
Procedure: Detailed materials and methods used in the experiments below, including protocols for making the dendrimers-Cy5 and dendrimers-drug conjugates, have been described by Kannan S et al Sci. Transl. Med., 4:130ra46 (2012) and in U.S. Pat. No. 8,889,101.
RTT mice were the Adrian Bird model available from Jackson Laboratory.
Weight and behavior were also assessed. Cytokines were measured using standard mice primers for the assessment of inflammatory markers (Kannan S et al Sci. Transl. Med., 4:130ra46 (2012)).
Conjugation of dendrimer conjugates. The conjugation of dendrimers to Cy5 was done using previously reported methods (Kannan et al., Science Trans. Med (April 2012). For drug experiments, dendrimers were conjugated to N-acetyl-cysteine and administered at doses ranging from 2-20 mg/kg at differing time points.
The mice were injected with D-drug or PBS every 3-4 days, Statistical analysis. The data was analyzed for the reproducibility using Student's t-test to determine the significance between two groups. A p-value equal to or less than 0.05 was considered significant.
Animals were videotaped prior to treatment every 3-4 days, and mobility, gait, tremors, paw clenching, paw clenching time, paw wringing, and respiration were all scored on a scale of 0-3, where ‘0’ indicates the worst score and ‘3’ is best or normal. […]

[1] = tested on: LPS-induced brain injury in a neonatal rabbit model of cerebral palsy; test: LPS-induced brain injury in neonatal rabbit model of cerebral palsy; format: in vivo
Procedure: The therapeutic efficacy of GA-PAMAM-S-S-NAC dendrimer conjugate was evaluated after two days of animal treatment with lipopolysaccharide (LPS) to induce white matter injury and hypomyelination in the developing rabbit brain (an animal model of Cerebral Palsy).

plasma protein = conditions: free drug; cited from earlier work
microglial cells = test: GSH depletion, ROS, NO, H2O2 and nitrite in microglial cells; format: cell-based; conditions: highest concentration (5 mM)

With `CC(=O)N[C@@H](CS)C(=O)O` [NAC, N-acetyl cysteine] the “Safety / toxicity from survival” value (MeCP2-null mice; twice weekly therapy) was “potential toxicity”, the “Survival (Kaplan-Meier) compared to non-treated animals” value (MeCP2-null mice; twice weekly, 10 mg/kg (NAC basis) from PND21) was “worse survival than non-treated Rett mice” and the “Dose eliciting identical responses” value ([1]; free NAC vs conjugate) was 100 mg/kg. For the same compound, the “Fetal inflammation response and motor deficits compared to saline-treated kits” value ([1]; rabbit kits) was “decrease in fetal inflammation response with improvement of motor deficits”, the Plasma protein binding (plasma protein) was “very high plasma protein binding” and the “Reduction of H2O2 levels” value (microglial cells) was 30-40%. For the same compound, the “Reduction of nitrite levels” value (microglial cells) was 30-40%.
